{
  "source": "patent US20240182893A1",
  "about": "“INHIBITION OF FGR REDUCES FIBROSIS” (UNIVERSITY OF PITTSBURGH-OF THE COMMONWEALTH SYSTEM OF …, priority 2021, published 2024)",
  "key": {"[1]": {"system": "mouse model of radiation-induced pulmonary fibrosis", "assay": "Mouse model of radiation-induced pulmonary fibrosis (18 Gy), qPCR and staining of lungs", "assay_type": "in vivo", "protocol": "(§1) FIG. 47. […] Relative mRNA expression of profibrotic genes (Tgf-β, Ctgf, Collagen 1a1, Collagen 3 and Collagen 4), senescence biomarkers (p16 and p21) and tyrosine kinase Fgr was evaluated by qPCR from one lobe of mouse lungs in control, irradiated and treated with Fgr inhibitor TL02-59 post irradiation. Briefly, Mice were irradiated (18 Gy), and TL02-59 treated (10 mg/kg), 3/week at day 75 for 4 weeks. (n=4-13). Statistics was performed, and individual p values were calculated by unpaired t-test.\nFIG. 48. Expression of Fgr and p16 from mouse lungs in control, irradiated, and treated with Fgr inhibitor TL02-59 post irradiation. […] Insets on the right from each group were magnified for clarity.\nas §1, with “(n=4-13),” for “(n=4-13).”"}, "other similar kinases": {"system": "other similar kinases", "assay": "Inhibition of other similar kinases", "assay_type": "biochemical"}, "[2]": {"details": "mice; cited from earlier work"}, "[3]": {"system": "target C57BL/6 stromal cells", "assay": "Non-contact transwell coculture: irradiated senescent tdTOMp16+ stromal cells on top, target cells at bottom, RT-qPCR of profibrotic genes", "assay_type": "cell-based, mouse", "protocol": "It was also confirmed that the RIS cells showing upregulation of Fgr RNA by heat map also had higher RNA levels. Validation of RNA for p16 and p21, as well as Fgr was carried out (FIG. 5A-FIG. 5C). To establish that irradiated tdTOMp16+ senescent cells induce profibrotic genes, a C57BL/6 target cell line, and a noncontact transwell co-culture system was used (FIG. 6A). Irradiated red cells were compared to 0 Gy or irradiated non-red cells. Sorted red cells, were placed on the top of each well and C57/B6 mouse stromal target cells were plated at the bottom well and observed for two weeks. There was significant induction of collagen 1al and collagen 3 in C57/B6 target cells by RIS red cells (FIG. 6B-FIG. 6C). […] (FIG. 6D).\nTranswell experiment: Control and Fgr knockdown stable cell lines were irradiated with 5 Gy by Cesium Gamma Cell dose rate 300 cGy/min. Ten days after radiation, red senescent and non-red non-senescent cells were sorted using MoFlo Astrios Cell Sorter (Beckman Coulter). Senescent and non-senescent cells were plated on the top well of the transwell with a […] pore size (Coster, Cat. No. 3412) and the target C57BL/6 cell line for the evaluation of fibrotic markers was plated at the bottom. 2 weeks later total RNA was extracted from the target C57BL/6 cells and evaluated by qPCR for Collagen 3 (Mm01254476_m1) and TGF-beta (Mm01191861_m1). GAPDH (Mm99999915_g1) was used as the loading control.\nTranswell coculture experiments. A Transwell system (0.4-μm pore size, polyester membrane; Corning, Kennebunk, ME) was used (Ejaz A et al. Stem Cells. 2019, 37, 791-802). C57BL/6 mouse bone marrow stromal cells or mouse primary tail fibroblasts were cultured in the bottom surface of a 9-cm^2 culture dishes. Above the adherent layer in the transwell, tdTOMp16+ bone marrow stromal cells (non-irradiated, irradiated non-sorted, irradiated, and sorted senescent tdTOM+, or irradiated non-senescent tdTOM− cells) were cultured in the upper transwell. […] For the stable Fgr shRNA cells, non-target control and Fgr shRNA knockdown cell lines were also irradiated and sorted following the same protocol. Briefly, tdTOMp16+ cells were irradiated and after 10 days of radiation, the cells were FACS sorted for tdTOM+ and tdTOM− cells and 3×10^5 cells added on the top wells in each case. Coculture was maintained for another 10 days. The target cells from the bottom well were lysed, and total RNA was isolated using TRizol (Sigma) reagent following the manufacturer's protocol. cDNA was synthesized, and expression of profibrotic genes (TGF-β1, CTGF, collagens (Col1, Col3), and α-SMA were analyzed using gene-specific TaqMan primers employing quantitative real-time polymerase chain reaction (PCR).\nIn vitro transwell experiments. Senescent bone marrow derived irradiated (5 Gy, subconfluent cultures held for 10 days) tdTOMp16+ cells were sorted for TOM+ (red) color and placed in Transwell cultures. Two types of transwell experiments were carried out. For induction of fibrosis biomarkers in target cells, senescent cells were placed into the top chamber separated from target mesenchymal stem cells (MSCs) derived from the adherent layer of long term C57Bl/6 mouse bone marrow cultures in the bottom chamber by a 0.4-micron pore size membrane. […] The migration of gfp+ cells through the filter to the bottom compartment was measured by imaging the bottom wells and counting gfp+ cells relative to numbers of senescent TOM+ (red) cells. […]"}, "[4]": {"system": "target cell line (bottom layer)", "assay": "Non-contact transwell coculture with sorted senescent cells from irradiated mouse lungs, profibrotic genes in target cell line", "assay_type": "cell-based", "details": "FIG. 14", "source_text": "FIG. 14. Upregulation of profibrotic genes in target cells by irradiated mouse lung senescent cells. In a noncontact transwell co-culture system, filter separated (19) sorted irradiated red and irradiated non-red mouse lung cells plated on top layer, there is significant induction of Tgf-β. Collagen 1a1 and collagen 3 in target cell line (bottom layer).\nTo establish that irradiated tdTOMp16+ senescent cells induce profibrotic genes in other cells, a C57BL/6 target cell line and a noncontact transwell co-culture system were used (Ejaz A et al. Stem Cells. 2019, 37, 791-802) (FIG. 14). Using the tdTOMp16+ stromal cell line, significant induction by RIS red cells of collagen 1al, collagen 3, and TGF-β in C57/B6 target cells was observed. The induction was abrogated by the Fgr inhibitor TL02-59 (Mukherjee A et al. Cell Death Discovery, 2021, 7, 349). It was confirmed that the findings in stromal cells also occur in lung. Red and non-red cells from 20 Gy irradiated tdTOMp16 mouse lungs were tested."}, "[5]": {"details": "10 nM TL02-59, 10 days, FIG. 23"}},
  "note": "Values joined by “and” are separate entries in the source; they are usually repeats but may differ in a detail not shown here. Equal values may be shown once. “Also recorded” adds a separate entry of the source.",
  "data": [
    {"compound": "CCN1CCN(Cc2ccc(NC(=O)c3ccc(C)c(Oc4ncnc5cc(OC)c(OC)cc45)c3)cc2C(F)(F)F)CC1", "note": "[TL02-59]", "values": [
      {"measurement": "relative mRNA expression of profibrotic genes (Tgf-β, Ctgf, Collagen 1a1, Collagen 3, Collagen 4), senescence biomarkers (p16, p21) and Fgr in lungs (qPCR)", "setting": "[1]; 18 Gy, TL02-59 10 mg/kg, 3/week at day 75 for 4 weeks, FIG. 47", "value": "reduces profibrotic and biomarkers of senescence"},
      {"measurement": "expression of Fgr and p16 proteins in mouse lungs (images)", "setting": "[1]; irradiated, TL02-59 post irradiation, FIG. 48", "value": "led to a reduction of both the proteins"},
      {"measurement": "fold greater dose required for inhibition of other similar kinases vs Fgr", "setting": "other similar kinases", "value": "10 to 100 fold and 10-to-100 fold"},
      {"measurement": "oral bioavailability", "setting": "[2]", "value": "orally bioavailable"},
      {"measurement": "plasma half-life", "setting": "[2]", "value": 6, "unit": "h"},
      {"measurement": "induction of TGF-beta in target cells by tdTOM+ senescent cells (RT-qPCR)", "setting": "[3]; [5]", "value": "significantly inhibited induction; also recorded: abrogates the induction of profibrotic genes"},
      {"measurement": "induction of collagen 3 in target cells by tdTOM+ senescent cells (RT-qPCR)", "setting": "[3]; [5]", "value": "significantly inhibited induction; also recorded: abrogates the induction of profibrotic genes"},
      {"measurement": "induction of fibrosis biomarkers TGF-β and Collagen 3 in target mesenchymal stem cells", "setting": "[3]; TL02-59 10 nM, 10 days, FIG. 44", "value": "blocked; also recorded: inhibits the induction"},
      {"measurement": "induction of collagen 3 in target cells by RIS red cells", "setting": "[3]; TL02-59 1 μm, transwell, after 2 weeks, FIG. 6D", "value": "reduced the induction of collagen 3; also recorded: blocks senescent cell induction"},
      {"measurement": "induction of biomarkers of fibrosis (collagen 1a1, collagen 3, TGF-β) in target cells by RIS cells", "setting": "[3]; transwell co-culture, tdTOMp16+ stromal cell line", "value": "abrogates the induction of biomarkers of fibrosis; also recorded: abrogated senescent cell induction of profibrotic genes"},
      {"measurement": "induction of Tgf-β, Collagen 1a1 and collagen 3 in target cells by irradiated mouse lung senescent cells", "setting": "[4]; TL02-59 10 nM", "value": "can block senescent cell induction of these genes"},
      {"measurement": "induction of collagen 3 by RIS red lung cells", "setting": "[4]; cells from 20 Gy irradiated tdTOMp16 mouse lungs", "value": "reduced the induction of collagen 3"}
    ]}
  ]
}
